Results as given in patent US9681664B2, “Macrocyclic picolinamides as fungicides” (Dow Agrosciences LLC, priority 2012, dated 2017).
Where two headings read alike, the source gives them in different places.

How the values were obtained:
Type in all cases: in vivo
Cercospora beticola = test: Leaf spot of sugar beets (CERCBE) disease control; settings: 24 h, 1 Day Protectant, high volume, read-out: Disease Control CERCBE 1 DP
Description: Technical grades of materials were dissolved in acetone, which were then mixed with nine volumes of water containing 110 ppm Triton X-100. The fungicide solutions were applied onto wheat seedlings using an automated booth sprayer to run-off. All sprayed plants were allowed to air dry prior to further handling. All fungicides were evaluated using the aforementioned method for their activity vs. all target diseases. Wheat leaf blotch and brown rust activity were also evaluated using track spray applications, in which case the fungicides were formulated as EC formulations, containing 0.1% Trycol 5941 in the spray solutions. Sugar beet plants (variety HH88) were grown in soil-less Metro mix and trimmed regularly to maintain a uniform plant size prior to test. Plants were inoculated with a spore suspension 24 hr after fungicide treatments. Inoculated plants were kept in a dew chamber at 22° C. for 48 hr then incubated in a greenhouse set at 24° C. under a clear plastic hood with bottom ventilation until disease symptoms were fully expressed. Fungicide formulation, application and disease assessment on the sprayed leaves followed the procedures as described in the Example A.

[1] = test system: Magnaporthe grisea; Anamorph: Pyricularia oryzae; test: whole plant or invertebrate; settings: 24 h, read-out: PYRIOR 1 DP disease control
[2] = test system: Puccinia triticina; Synonym: Puccinia recondite f. sp. tritici; test: Wheat brown rust (PUCCRT) disease control on wheat seedlings; settings: Puccinia triticina, High volume application, 100 ppm
Outline: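 Yuma wheat grown to first fully emerged leaf was inoculated with Puccinia triticina spore suspension either before or after fungicide treatment, held overnight at 22° C. and 100% RH in darkness, then kept at 24° C. Fungicide applied by booth sprayer to run-off (acetone/water, 110 ppm Triton X-100) or as EC by track spray.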

Rhyncosporium secalis = test: Barley scald (RHYNSE) disease control; settings: 24 h, High volume application, 1 Day Protectant, read-out: RHYNSE 1 DP disease control
Description: Technical grades of materials were dissolved in acetone, which were then mixed with nine volumes of water containing 110 ppm Triton X-100. The fungicide solutions were applied onto wheat seedlings using an automated booth sprayer to run-off. All sprayed plants were allowed to air dry prior to further handling. All fungicides were evaluated using the aforementioned method for their activity vs. all target diseases. Wheat leaf blotch and brown rust activity were also evaluated using track spray applications, in which case the fungicides were formulated as EC formulations, containing 0.1% Trycol 5941 in the spray solutions. Barley seedlings (variety Harrington) were propagated in soil-less Metro mix, with each pot having 8 to 12 plants, and used in the test when first leaf was fully emerged. Test plants were inoculated by an aqueous spore suspension of Rhyncosporium secalis 24 hr after fungicide treatments. After inoculation the plants were kept in a dew room at 20° C. with 100% relative humidity for 48 hr. The plants were then transferred to a greenhouse set at 20° C. for disease to develop. Fungicide formulation, application and disease assessment on the sprayed leaves followed the procedures as described in the Example A.

Alternaria solani = test: Tomato early blight (ALTESO) disease control; settings: 24 h, 1 Day Protectant, high volume, read-out: Disease Control ALTESO 1 DP
Description: Technical grades of materials were dissolved in acetone, which were then mixed with nine volumes of water containing 110 ppm Triton X-100. The fungicide solutions were applied onto wheat seedlings using an automated booth sprayer to run-off. All sprayed plants were allowed to air dry prior to further handling. All fungicides were evaluated using the aforementioned method for their activity vs. all target diseases. Wheat leaf blotch and brown rust activity were also evaluated using track spray applications, in which case the fungicides were formulated as EC formulations, containing 0.1% Trycol 5941 in the spray solutions. Tomato plants (variety Outdoor girl) were propagated in soil-less Metro mix, with each pot having one plant, and used when 12 to 14 days old. Test plants were inoculated with an aqueous spore suspension of Alternaria solani 24 hr after fungicide treatments. After inoculation the plants were kept in 100% relative humidity (one day in a dark dew chamber followed by two to three days in a lighted dew chamber at 20° C.) to permit spores to germinate and infect the leaf. The plants were then transferred to a growth room at 22° C. for disease to develop. Fungicide formulation, application and disease assessment on the sprayed leaves followed the procedures as described in the Example A.

[3] = 24 h, 1 Day Protectant, read-out: PUCCRT 1DP disease control
[4] = 72 h, 3 Day Curative, read-out: PUCCRT 3DC disease control

`COc1ccnc(C(=O)N[C@H]2CCC[C@H](Oc3ccccc3)[C@@H](OCCCc3ccccc3)[C@H](C)OC2=O)c1OCOC(C)=O` [F130] was tested. Which pest or weed control at 100 ppm (Cercospora beticola) did it give?
Its pest or weed control at 100 ppm is 80 to 100%.

And the pest or weed control at 100 ppm [1]?
Its pest or weed control at 100 ppm is 80 to 100%.

What about the pest or weed control at 100 ppm [2, 3] of the same molecule?
Its pest or weed control at 100 ppm is 80 to 100%.

What about the pest or weed control at 100 ppm [2, 4] of the same molecule?
Its pest or weed control at 100 ppm is 80 to 100%.

And the pest or weed control at 100 ppm (Rhyncosporium secalis)?
Its pest or weed control at 100 ppm is 80 to 100%.

And the pest or weed control at 100 ppm (Alternaria solani)?
The pest or weed control at 100 ppm was 80 to 100%.

Which pest or weed control at 100 ppm (Cercospora beticola) does the source give for `COCCC(=O)Oc1c(OC)ccnc1C(=O)N[C@H]1CCC[C@H](Oc2ccccc2)[C@@H](OCCCc2ccccc2)[C@H](C)OC1=O` [F132] here?
Its pest or weed control at 100 ppm is 0 to 80%.

And the pest or weed control at 100 ppm [1]?
Its pest or weed control at 100 ppm is 0 to 80%.

And the pest or weed control at 100 ppm [2, 3]?
Its pest or weed control at 100 ppm is 80 to 100%.

What about the pest or weed control at 100 ppm [2, 4] of the same molecule?
The pest or weed control at 100 ppm was 80 to 100%.

And the pest or weed control at 100 ppm (Rhyncosporium secalis)?
The pest or weed control at 100 ppm was 0 to 80%.

And the pest or weed control at 100 ppm (Alternaria solani)?
Its pest or weed control at 100 ppm is 80 to 100%.

Which pest or weed control at 100 ppm (Cercospora beticola) does the source give for `COc1ccnc(C(=O)N[C@H]2CCC[C@H](OCCCc3ccccc3)[C@@H](Oc3ccccc3)[C@H](C)OC2=O)c1OC(C)=O` [F134] here?
The pest or weed control at 100 ppm was 80 to 100%.

And the pest or weed control at 100 ppm [1]?
The pest or weed control at 100 ppm was 80 to 100%.

What about the pest or weed control at 100 ppm [2, 3] of the same molecule?
The pest or weed control at 100 ppm was 80 to 100%.

And the pest or weed control at 100 ppm [2, 4]?
Its pest or weed control at 100 ppm is 80 to 100%.

And the pest or weed control at 100 ppm (Rhyncosporium secalis)?
Its pest or weed control at 100 ppm is 80 to 100%.

And the pest or weed control at 100 ppm (Alternaria solani)?
The pest or weed control at 100 ppm was 0 to 80%.

With `COc1ccnc(C(=O)N[C@H]2CCC[C@H](OC3CCCC3)[C@@H](OCCCc3ccccc3)[C@H](C)OC2=O)c1OCOC(C)=O` [F165] as the molecule, how does the pest or weed control at 100 ppm (Cercospora beticola) read?
The pest or weed control at 100 ppm was 80 to 100%.

And the pest or weed control at 100 ppm [1]?
The pest or weed control at 100 ppm was 80 to 100%.

What about the pest or weed control at 100 ppm [2, 3] of the same molecule?
The pest or weed control at 100 ppm was 80 to 100%.

What about the pest or weed control at 100 ppm [2, 4] of the same molecule?
The pest or weed control at 100 ppm was 80 to 100%.

What about the pest or weed control at 100 ppm (Rhyncosporium secalis) of the same molecule?
Its pest or weed control at 100 ppm is 80 to 100%.

What about the pest or weed control at 100 ppm (Alternaria solani) of the same molecule?
Its pest or weed control at 100 ppm is 80 to 100%.

What does the source list for `CCCCCO[C@H]1[C@H](C)OC(=O)[C@@H](NC(=O)c2nccc(OC)c2OCOC(C)=O)CCC[C@@H]1OC1CCCC1` [F166]?
pest or weed control at 100 ppm (Cercospora beticola): 80 to 100%; pest or weed control at 100 ppm [1]: 80 to 100%; pest or weed control at 100 ppm [2, 3]: 80 to 100%; pest or weed control at 100 ppm [2, 4]: 80 to 100%; pest or weed control at 100 ppm (Rhyncosporium secalis): 80 to 100%; pest or weed control at 100 ppm (Alternaria solani): 80 to 100%

With `COc1ccc(O[C@H]2CCC[C@H](NC(=O)c3nccc(OC)c3OCOC(=O)C(C)C)C(=O)O[C@@H](C)[C@@H]2OC2CCCC2)cc1` [F169] as the molecule, how does the pest or weed control at 100 ppm (Cercospora beticola) read?
Its pest or weed control at 100 ppm is 80 to 100%.

And the pest or weed control at 100 ppm [1]?
Its pest or weed control at 100 ppm is 80 to 100%.

And the pest or weed control at 100 ppm [2, 3]?
Its pest or weed control at 100 ppm is 80 to 100%.

And the pest or weed control at 100 ppm [2, 4]?
Its pest or weed control at 100 ppm is 80 to 100%.

And the pest or weed control at 100 ppm (Rhyncosporium secalis)?
The pest or weed control at 100 ppm was 80 to 100%.

And the pest or weed control at 100 ppm (Alternaria solani)?
The pest or weed control at 100 ppm was 80 to 100%.

With `COc1ccc(O[C@H]2CCC[C@H](NC(=O)c3nccc(OC)c3OCOC(C)=O)C(=O)O[C@@H](C)[C@@H]2OC2CCCC2)cc1` [F170] as the molecule, how does the pest or weed control at 100 ppm (Cercospora beticola) read?
The pest or weed control at 100 ppm was 80 to 100%.

What about the pest or weed control at 100 ppm [1] of the same molecule?
Its pest or weed control at 100 ppm is 80 to 100%.

What about the pest or weed control at 100 ppm [2, 3] of the same molecule?
The pest or weed control at 100 ppm was 80 to 100%.

And the pest or weed control at 100 ppm [2, 4]?
The pest or weed control at 100 ppm was 80 to 100%.

What about the pest or weed control at 100 ppm (Rhyncosporium secalis) of the same molecule?
The pest or weed control at 100 ppm was 80 to 100%.

And the pest or weed control at 100 ppm (Alternaria solani)?
The pest or weed control at 100 ppm was 80 to 100%.

Which results are given for `COc1ccnc(C(=O)N[C@H]2CCC[C@H](OCCCC(F)(F)F)[C@@H](OC3CCCC3)[C@H](C)OC2=O)c1OCOC(=O)C(C)C` [F171]?
pest or weed control at 100 ppm (Cercospora beticola): 80 to 100%; pest or weed control at 100 ppm [1]: 80 to 100%; pest or weed control at 100 ppm [2, 3]: 80 to 100%; pest or weed control at 100 ppm [2, 4]: 80 to 100%; pest or weed control at 100 ppm (Rhyncosporium secalis): 80 to 100%; pest or weed control at 100 ppm (Alternaria solani): 80 to 100%

What does the source list for `COc1ccnc(C(=O)N[C@H]2CCC[C@H](OCCCC(F)(F)F)[C@@H](OC3CCCC3)[C@H](C)OC2=O)c1OCOC(C)=O` [F172]?
pest or weed control at 100 ppm (Cercospora beticola): 80 to 100%; pest or weed control at 100 ppm [1]: 80 to 100%; pest or weed control at 100 ppm [2, 3]: 80 to 100%; pest or weed control at 100 ppm [2, 4]: 80 to 100%; pest or weed control at 100 ppm (Rhyncosporium secalis): 80 to 100%; pest or weed control at 100 ppm (Alternaria solani): 80 to 100%
